Earlier results as cited in patent US7241583B2, “TRL1 as an antifungal target” (Oxford Glycosciences (UK) Ltd, priority 2002, dated 2007).

Settings: mice; DOX 2 mg/ml in 5% sucrose solution as drinking water, approx. 5 ml per day

C[C@H]1c2cccc(O)c2C(O)=C2C(=O)[C@]3(O)C(O)=C(C(N)=O)C(=O)[C@@H](N(C)C)[C@@H]3[C@@H](O)[C@@H]21 [DOX, doxycycline]
concentration of DOX in kidney: > 10 mg/g of kidney
concentration of DOX in liver: > 8 mg/g of liver
concentration of DOX in serum: more than 2 mg/ml of serum
